Tests used:
HSV-1 (KOS) = assay: Virus yield assay, Triapine plus acyclovir against HSV-1; assay type: cell-based, herpes simplex virus; details: for EC90: virus yield assay, 48 hr, combinations: ACV with fixed Triapine concentration
Procedure: (§1) To evaluate the antiviral activities of Triapine, acyclovir, and combination thereof, HeLa S3 cells are seeded in 25-cm^2 flasks and are used as host cells for virus infection (laboratory strains of virus HSV-1, HSV-2, wild type (Darby et al., (1982) Nature, 289, 81-3; Cheng, et al., Antimicrob. Agents Chemother. 18, 957-61, 1980). After a 1-hr adsorption period with virus at 5-10 plaque-forming units per cell, the monolayers are rinsed with phosphate-buffered saline, followed by the addition of 5 ml of growth medium containing various concentrations of drug. Concentrations of Triapine tested range from 0.1 to 1.0 micromolar where concentrations of acyclovir are from 1-50 micromolar. The cells are incubated at 37° C. for 48 hr and then are stored frozen at −70° C. until titration. The amounts of HSV contained in cells are determined with Vero cells using the methods described by Cheng et al. (Cheng, et al., Antimicrob. Agents Chemother. 18, 957-61, 1980).
(§2) The results of the above-test are presented in the following Table 1, below, which presents the antiviral activity of Triapine, at low, non-toxic clinically achievable concentrations of 0.3, 0.6 and 1.0 μM, in combination with acyclovir against HSV-1 (KOS) and HSV-2 (333) strains of herpes simplex virus in a virus yield assay. […] A greater than 4-fold decrease in the EC90 of ACV against HSV-2 is observed with 0.6 μM Triapine.

HSV-2 (333) = assay: Virus yield assay, Triapine plus acyclovir against HSV-2; assay type: cell-based, herpes simplex virus; details: for EC90: virus yield assay, 48 hr, combinations: ACV with fixed Triapine concentration
Procedure: as §1, §2

[1] = tested on: acyclovir-resistant HSV strains; details: in combination with acyclovir; cited from earlier work
strain IIIB of HIV = assay: Anti-HIV activity of Triapine combinations in HIV-infected MT-2 cells (MTT, isobolograms); assay type: cell-based, HIV-1; details: FIG. 4
Procedure: MT-2 cells infected with strain IIIB of HIV (wildtype, 3TC resistant, or AZT resistant) are used for determining antiviral activities (Bridges et al., Biochem. Pharmacol. Vol. 51, 731-36, 1996). Cells are infected with virus at a multiplicity of infection of 0.1 TCID50/ml and added to wells containing serial 2-fold dilutions of drugs. MT-2 cells in RPMI 1640 medium supplemented with 10% dialyzed fetal bovine serum and 100 μg/mL Kanamnycin are infected with virus and immediately added to serial dilutions of the drugs. After 5 days, 20 μL of MTT dye (2.5 mg/mL in PBS) is added per well. At the end of the 4-h incubation period, 150 μL of acidified 2-propanol with 2% NP-40 nonionic detergent is added per well. After the crystals of dye are dissolved (usually 1-2 days), the plates are read on a microplate reader. Using this MTT-dye reduction method (Larder et al., (1990), Antimicrob. Agents Chemother. 34, 436-41), the percentage of protection can be calculated from the formula [(a−b)/(c−b)×100] in which a is the A595 of drug-treated virus-infected wells, b is the A595 of no-drug infected cells, and c is the A595 of the no-drug uninfected cells. The EC50 was calculated from linear log 10 plots of the percentage protection verses inhibition concentration.
Using the above-described experimental system, the ability of Triapine to potentiate the anti-HIV activity of the dideoxynucleoside analogs ddI (2′,3′-dideoxyinosine), D4T (2′,3′-dideoxydidehydrothymidine) and AZT (3′-azidothymidine) was examined in HIV-infected MT-2 cells (as described above).

[2] = set-up: dose or concentration left out as unconfirmed; details: cancer patients, 96-hour infusion; cited from earlier work
[3] = Solubility in aqueous solution
HIV-infected cells = details: combined with 2′,3′-dideoxyinosine (DDI); cited from earlier work

## Nc1nc2c(ncn2COCCO)c(=O)[nH]1 [ACV, acyclovir]
HSV-1 (KOS); HSV-1, in the presence of 0.3 μM Triapine
  decrease of the EC90 of ACV: 10 fold
HSV-1 (KOS); HSV-1, in the presence of 0.6 μM Triapine
  decrease of the EC90 of ACV: greater than 24 fold
HSV-1 (KOS); Human alphaherpesvirus 1
  EC90: 29.3 µM
HSV-2 (333); HSV-2, with 0.6 μM Triapine
  decrease in the EC90 of ACV: greater than 4 fold
HSV-2 (333); Human alphaherpesvirus 2
  EC90: 36.5 µM

## CC[C@@H](NC(=O)[C@@H](CC(=O)[C@@H](CC(=O)[C@@H](NC(=O)[C@H](C(C)C)N(C)C(=O)[C@H](C)CC1CCCCC1)C(C)(C)C)CC(=O)C(C)(C)C)C1(C(=O)O)CCCC1)C(C)(C)C [BILD1633 SE]
[1]
  activity against acyclovir-resistant HSV strains: had activity

## NC(=S)NN=Cc1ncccc1N [Triapine, 3-aminopyridine-2-carboxyaldehyde thiosemicarbazone]
HSV-1 (KOS)
  EC90: > 1 µM
HSV-2 (333)
  EC90: > 1 µM
Strain IIIB of HIV; combined with AZT
  anti-HIV interaction (isobologram): additive
Strain IIIB of HIV; combined with D4T
  anti-HIV interaction (isobologram): synergistic
Strain IIIB of HIV; combined with ddI
  anti-HIV interaction (isobologram): synergistic
[2]
  concentration of Triapine reached: 1000 nM
[3]
  solubility in aqueous solution: less than 0.1 mg/ml

## NC(=O)NO [hydroxyurea]
HIV-infected cells
  effects against HIV-infected cells in combination: synergistic effects

From US6911460B2, “Antiviral agents and methods of treating viral infections” (Vion Pharmaceuticals, Inc., priority 2001, dated 2005)
